Among the data in patent publication EP0076622A1, “Anthelmintics” (BEECHAM GROUP PLC, priority 1981, dated 1983) are Activity % and inhibition in vivo values, retold here.

One may read the inhibition in vivo as how much of the control response was suppressed.

In this experiment the test system is Nematospiroides dubius. Nature of the experiment: Oral activity against experimental infections of Nematospiroides dubius in the mouse (worm numbers of treated vs untreated control animals). It is filed as in vivo. To be noted: calculated from worm numbers of treated and control animals; for inhibition in vivo at 100 mg/kg / inhibition in vivo at 200 mg/kg: Heligmosomoides polygyrus, po. On the procedure:
The oral activity of the following compounds, against experimental infections of Nematospiroides dubius in the mouse, was calculated from a comparison of the worm numbers of treated and control (untreated) animals.

Turning to “S-Methyl-N-[4-nitrophenyl]-N'-[3-(6-{2,3,5,6-tetra- hydroimidaza[2,1-b]thiazolyl})phenyl]isothiourea [Example 16]”, the Activity % is 95% (Dose 50 mg/kg (p.o.)), 100% (Dose 100 mg/kg (p.o.)) and 100% (Dose 200 mg/kg (p.o.)).

`CSC(=Nc1cccc(C2CN3CCSC3=N2)c1)Nc1cccc(C)c1` (stereo not shown) [Example 57]: the inhibition in vivo at 100 mg/kg (Dose 100 mg/kg (p.o.)) is 40%. Besides, the inhibition in vivo at 200 mg/kg (Dose 200 mg/kg (p.o.)) was 100%.

`CSC(=Nc1cccc(C2CN3CCSC3=N2)c1)Nc1cccc(F)c1` (stereo not shown) [Example 15, S-Methyl-N-[3-fluorophenyl]-N'-[3-(6-{2,3,5,6-tetra-hydroimidazo[2,1-b]thiazolyl})phenyl]isothiourea]: the inhibition in vivo at 100 mg/kg (Dose 100 mg/kg (p.o.)) is 100%. In addition, the inhibition in vivo at 200 mg/kg (Dose 200 mg/kg (p.o.)) is 100%.

Take `CSC(=Nc1cccc(C2CN3CCSC3=N2)c1)Nc1ccc(C)cc1` (stereo not shown) [Example 19, S-Methyl-N-[4-methylphe_nyl]-N'-[3-(6-{2,3,5,6-tetra-hydroimidazo[2,1-b]thiazolyl})phenyl]isothiourea]: the inhibition in vivo at 200 mg/kg (Dose 200 mg/kg (p.o.)) was 0%.

“S-Methyl-N-[4-cyanophenyl]-N'-[3-(6-{2,3.5,6-tetra- hydroimidazo[2,1-b]thiazolyl})phenyl]isothiourea [Example 24]”: the Activity % is listed as 99% (Dose 100 mg/kg (p.o.)) and 100% (Dose 200 mg/kg (p.o.)).

On to `CSC(=Nc1cccc(C2CN3CCSC3=N2)c1)NCc1ccccc1` (stereo not shown) [Example 75], for which, for the setting “Dose 200 mg/kg (p.o.)”, the inhibition in vivo at 200 mg/kg is 54%.

Consider `CSC(=Nc1cccc(C2CN3CCSC3=N2)c1)NC1CCCCC1` (stereo not shown) [Example 76], for which the inhibition in vivo at 200 mg/kg (Dose 200 mg/kg (p.o.)) was 15%.

`CSC(=Nc1cccc(C2CN3CCSC3=N2)c1)Nc1cccc(Cl)c1` (stereo not shown) [Example 20]: the inhibition in vivo at 100 mg/kg (Dose 100 mg/kg (p.o.)) is 87%. For the same compound, for the setting “Dose 200 mg/kg (p.o.)”, the inhibition in vivo at 200 mg/kg was 100%.

Take `COc1ccc(NC(=Nc2cccc(C3CN4CCSC4=N3)c2)SC)cc1` (stereo not shown) [p-C6H4OCH3]: the inhibition in vivo at 200 mg/kg (Dose 200 mg/kg (p.o.)) was 59%.

Regarding “S-Methyl-N-[3,4-dichlorophenyl]-N'-[3-(6{2,3,5,6-tetra- hydroimidazo[2,1-b]thiazolyl}) phenyl]isothiourea [Example 18]”, the Activity % (Dose 200 mg/kg (p.o.)) is listed as 34%.

On to `CSC(=Nc1cccc(C2CN3CCSC3=N2)c1)Nc1ccc(C)c(C)c1` (stereo not shown) [Example 56], for which the inhibition in vivo at 200 mg/kg (Dose 200 mg/kg (p.o.)) was 0%.

Turning to `CSC(=Nc1cccc(C2CN3CCSC3=N2)c1)Nc1ccccc1` (stereo not shown) [Example 13], the inhibition in vivo at 200 mg/kg (Dose 200 mg/kg (p.o.)) is 99%.

On to `CCSC(=Nc1cccc(C2CN3CCSC3=N2)c1)Nc1ccccc1` (stereo not shown) [Example 22, S-Ethyl-N-phenyl-N'-[3-(6{2,3,5,6-tetrahydroimidazo-[2,1-b]thiazolyl})phenyl]isothiourea], for which, for the setting “Dose 200 mg/kg (p.o.)”, the inhibition in vivo at 200 mg/kg is 92%.

Take `CSC(=Nc1cccc(C2CN3CCSC3=N2)c1)Nc1ccc(Cl)cc1` (stereo not shown) [Example 17, S-Methyl-N-[4-chlorophenyl]-N'-[3-(6-{2,3,5,6-tetra-hydroimidazo[2,1-b]thiazolyl})phenyl]isothiourea]: the inhibition in vivo at 200 mg/kg (Dose 200 mg/kg (p.o.)) was 88%.

For the compound `CSC(=Nc1cccc(C2CN3CCSC3=N2)c1)Nc1ccc(F)cc1` (stereo not shown) [Example 14, S-Methyl-N-[4-fluorophenyl]-N'-[3-(6-{2,3,5,6-tetra-hydroimidazo [2,1-b]thiazolyl})phenyl]isothiourea], the inhibition in vivo at 200 mg/kg (Dose 200 mg/kg (p.o.)) is 100%.

Regarding “S-Methyl-N-[4-acetylphenyl]-N'-[3-(6-{2,3,5,6-tetra- hydroimidazo-[2,1-b]thiazolyl})phenyl]isothiourea [Example 25]”, the Activity % reads like this: (Dose 100 mg/kg (p.o.)) 93%; (Dose 200 mg/kg (p.o.)) 100%.

As for `CSC(=Nc1cccc(C2CN3CCSC3=N2)c1)Nc1cccc([N+](=O)[O-])c1` (stereo not shown) [Example 58], for the setting “Dose 100 mg/kg (p.o.)”, the inhibition in vivo at 100 mg/kg was 95%. For the same compound, the inhibition in vivo at 200 mg/kg (Dose 200 mg/kg (p.o.)) was 95%.
